Results as given in patent publication US12528790B2, “Amide derivative having antiviral activity” (Shionogi & Co., Ltd., priority 2020, dated 2026).
Like-named read-outs stand apart in the source and are kept apart here.

Tests used:
[1] = test system: RSV A2 strain; test: In vitro CPE (CytoPathic Effect) inhibition effect evaluation test, RSV type A; type: cell-based
Method in brief: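 EC50 is the concentration giving 50% inhibition of virus-induced cytopathic effect, fitted by nonlinear regression from CellTiter-Glo 2.0 viability. Compounds in 3-fold series were co-incubated at 37 °C with HEp-2 cells and RSV: A2 strain for 4 days, B (Wash/18537) for 5 days; uninfected wells served as control.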

[2] = test system: RSV B (Wash/18537 strain); test: In vitro CPE (CytoPathic Effect) inhibition effect evaluation test, RSV type B; type: cell-based
Protocol: The test sample is diluted in advance to an appropriate concentration with DMSO, and 3-fold series of serial dilutions were prepared on a 384-well plate (0.32 μL/well). HEp-2 cells (CCL-23; ATCC) adjusted at appropriate number (2.4×10^5 cells/mL) in 2% FBS E-MEM (prepared by adding kanamycin and FBS to Eagle's Minimum Essential Medium; Invitrogen) were added at 12.5 μL/well to the 384-well plate previously aliquoted with the test samples. The RSV A2 strain was diluted to an appropriate concentration in a culture medium and added to the 384-well plate containing the test sample at 12.5 μL/well. The culture medium was added additionally to the 384-well plate, and the test was started with 50 μL/well. Control wells were prepared with only virus-free culture medium. The plate was incubated in a 5% CO2 incubator at 37° C. for 4 days, and the plate was then placed at room temperature for 30 minutes. CellTiter-Glo (registered trademark) 2.0 assay (Promega) was added at 15 μL/well, mixed for 30 seconds, and the plate was placed for approximately 1 hour. The luminescent signal was then measured by EnVision (PerkinElmer). The inhibitory effect of the test agents on RSV-induced CPE was calculated as 0% and 100% inhibition rate for each sample concentration based on the level of remaining viable cells by CellTiter-Glo (registered trademark) 2.0, with the EC50 value for each compound calculated by nonlinear regression as the concentration that inhibits RSV-induced CPE by 50%. In the case of evaluation against RSV type B, RSV B (Wash/18537 strain) was infected in the same manner as the type A, cultured for 5 days, and quantitated in the same manner as for the A2 strain.

[3] = human respiratory syncytial virus, inhibitory effect against RSV type A (RSV A2 strain), HEp-2 cells, CPE inhibition, read-out: EC50
[4] = human respiratory syncytial virus, inhibitory effect against RSV type B, CPE inhibition, read-out: EC50
[5] = inhibitory effect against RSV type A (RSV A2 strain), HEp-2 cells, CPE inhibition, read-out: EC50

Row | SMILES | EC50 [1, 3] [nM] | EC50 [2, 4] [nM] | also measured
1 | O=C(NC1(C(=O)O)C2CC3CC(C2)CC1C3)c1cnc(N2CC(C3CCCC3)c3cc(OC4CCN(CC(F)(F)F)CC4)ccc32)nc1C(F)(F)F (racemic) [Compound I-487] | < 10 | 10 to 100 | –
2 | O=C(NC1(C(=O)O)C2CC3CC(C2)CC1C3)c1cnc(-c2cn(C3CCC(F)(F)CC3)c3cc(OC4CC5(C4)CN(c4ncc(F)cn4)C5)ccc23)nc1C(F)(F)F (stereo not shown) [Compound I-407] | < 10 | 100 to 5000 | –
3 | COC[C@@H](C)n1cc(-c2ncc(C(=O)NC3(C(=O)O)C4CC5CC(C4)CC3C5)c(C(F)(F)F)n2)c2ccc(O[C@H]3CC[C@@H](N4CC(F)(F)C4)CC3)cc21 (stereo partly shown) [Compound I-585] | < 10 | < 10 | –
4 | CC(F)(F)c1nc(N2CC3(CCCCC3)c3cc(O[C@H]4CC[C@H](N5CC(F)(F)C5)CC4)ccc32)ncc1C(=O)NC1(C(=O)O)C2CC3CC(C2)CC1C3 (stereo partly shown) [Compound I-443] | < 10 | < 10 | –
5 | O=C(NC1(C(=O)O)C2CC3CC(C2)CC1C3)c1cnc(N2CC3(CCOCC3)c3cc(OC4CCN(CC(F)(F)F)CC4)ccc32)nc1C(F)(F)F (stereo not shown) [Compound I-384] | < 10 | < 10 | –
6 | COC[C@@H](C)n1cc(-c2ncc(C(=O)NC3(C(=O)O)C4CC5CC(C4)CC3C5)c(C(C)(F)F)n2)c2ccc(O[C@H]3CC[C@H](N4CC(F)(F)C4)CC3)cc21 (stereo partly shown) [Compound I-569] | < 10 | < 10 | –
7 | CC(F)(F)CN1CCC(Oc2ccc3c(-c4ccc(C(=O)NC5(C(=O)O)C6CC7CC(C6)CC5C7)c(C(F)(F)F)n4)cn(C4CCC(F)(F)CC4)c3c2)CC1 (stereo not shown) [Compound I-512] | < 10 | 10 to 100 | –
8 | C/C(=N\OC1CCC(F)(F)CC1)c1ccc2c(c1)C1(CCCCC1)CN2c1ncc(C(=O)NC2(C(=O)O)C3CC4CC(C3)CC2C4)c(C(F)(F)F)n1 (single isomer, unassigned) [Compound I-476] | 10 to 100 | 100 to 5000 | –
9 | O=C(NC1(C(=O)O)C2CC3CC(C2)CC1C3)c1cnc(-c2cn(C3CCC(F)(F)CC3)c3cc(OC4CCN(c5ncccn5)CC4)ncc23)nc1C(F)(F)F (stereo not shown) [Compound I-268] | – | – | EC50 ([1]; human respiratory syncytial virus, HEp-2, 96 h, read-out: EC50, inhibitory effect against RSV type A (CPE inhibition)): 1.4 nM; EC50 ([2]; human respiratory syncytial virus, HEp-2, 120 h, HEp-2 cells, RSV B (Wash/18537 strain), 5 days, CellTiter-Glo, read-out: EC50, inhibitory effect against RSV type B (CPE inhibition)): 4.3 nM
10 | CC(F)(F)c1nc(-c2cn(C3CCC4(CC3)COC4)c3cc(O[C@H]4CC[C@H](N5CC(F)(F)C5)CC4)ccc23)ncc1C(=O)NC1(C(=O)O)C2CC3CC(C2)CC1C3 (stereo partly shown) [Compound I-580] | < 10 | < 10 | –
11 | CC(F)(F)c1nc(N2CC3(CCCCC3)c3cc(OC4CCC(N5CCC(F)(F)C5)CC4)ccc32)ncc1C(=O)NC1(C(=O)O)C2CC3CC(C2)CC1C3 (stereo not shown) [Compound I-540] | – | – | EC50 [1, 5]: < 10 nM; EC50 ([2]; inhibitory effect against RSV type B, CPE inhibition, read-out: EC50): 10 to 100 nM
12 | O=C(NCC(F)(F)F)c1ccc2c(c1)C1(CCOCC1)CN2c1ncc(C(=O)NC2(C(=O)O)C3CC4CC(C3)CC2C4)c(C(F)(F)F)n1 (stereo not shown) [Compound I-483] | < 10 | 100 to 5000 | –
13 | COC1CCN(C(=O)c2ccc3c(c2)C2(CCCCC2)CN3c2ncc(C(=O)NC3(C(=O)O)C4CC5CC(C4)CC3C5)c(C(C)(F)F)n2)CC1 (stereo not shown) [Compound I-609] | < 10 | < 10 | –
14 | O=C(NC1(C(=O)O)CCCCC1)c1cnc(N2CC3(CCOCC3)c3cc(OC4CCN(c5ncccn5)CC4)ccc32)nc1C(F)(F)F [Compound I-81] | < 10 | < 10 | –
15 | COC[C@H](C)n1cc(-c2ccc(C(=O)NC3(C(=O)O)C4CC5CC(C4)CC3C5)c(C(F)(F)F)n2)c2ccc(O[C@H]3CC[C@H](N4CC(F)(F)C4)CC3)cc21 (stereo partly shown) [Compound I-577] | < 10 | < 10 | –
16 | CCC(CC)n1cc(-c2ncc(C(=O)NC3(C(=O)O)C4CC5CC(C4)CC3C5)c(C(F)(F)F)n2)c2ccc(OC3CCN(c4ncc(F)cn4)CC3)cc21 (stereo not shown) [Compound I-421] | < 10 | < 10 | –
17 | O=C(NC1(C(=O)O)C2CC3CC(C2)CC1C3)c1ccc(-c2cn(S(=O)(=O)C3CC3)c3cc(OC4CCN(c5ncccn5)CC4)ccc23)nc1C(F)(F)F (stereo not shown) [Compound I-272] | < 10 | 10 to 100 | –
18 | O=C(NC1(C(=O)O)C2CC3CC(C2)CC1C3)c1cnc(-c2cn(C3CCOCC3)c3cc(OC4CCN(c5ncccn5)CC4)ccc23)nc1C(F)(F)F (stereo not shown) [Compound I-146] | < 10 | < 10 | –

Row | SMILES | EC50 [1, 3] [nM] | EC50 [2, 4] [nM] | also measured
19 | COCc1ccc(-c2ccc3c(c2)CCN3c2ncc(C(=O)NC3(C(=O)O)CCCCC3)c(C(F)(F)F)n2)cc1 [Compound I-9] | 10 to 100 | 100 to 5000 | –
20 | CC(F)(F)c1nc(-c2cn(C3CCOCC3)c3cc(O[C@H]4CC[C@@H](N5CC(F)(F)C5)CC4)ccc23)ncc1C(=O)NC1(C(=O)O)C2CC3CC(C2)CC1C3 (stereo partly shown) [Compound I-547] | < 10 | < 10 | –
21 | O=C(NC1(C(=O)O)C2CC3CC(C2)CC1C3)c1cnc(N2CC3(CCOCC3)c3cc(OC4CN(C(=O)OCc5ccccc5)C4)ccc32)nc1C(F)(F)F (stereo not shown) [Compound I-224] | < 10 | – | –
22 | CC(C)N1CCC(Oc2ccc3c(c2)C2(CCOCC2)CN3c2ncc(C(=O)NC3(C(=O)O)C4CC5CC(C4)CC3C5)c(C(F)(F)F)n2)CC1 (stereo not shown) [Compound I-209] | < 10 | – | –
23 | O=C(NC1(C(=O)O)C2CC3CC(C2)CC1C3)c1cnc(N2c3cc(F)c(OC4CCN(c5ncccn5)CC4)cc3C3CCCCCC32)nc1C(F)(F)F (single isomer, unassigned) [Compound I-395] | < 10 | – | –
24 | O=C(NC1(C(=O)O)C2CC3CC(C2)CC1C3)c1cnc(N2CC3(CCOCC3)c3cc(OCC(O)C(F)(F)F)ccc32)nc1C(F)(F)F (racemic) [Compound I-458] | < 10 | – | –
25 | N#Cc1cccc(-n2cc(-c3ccc(C(=O)NC4(C(=O)O)C5CC6CC(C5)CC4C6)c(C(F)(F)F)n3)c3ccc(OC4CCN(c5ncccn5)CC4)cc32)n1 (stereo not shown) [Compound I-339] | – | – | EC50 [1, 5]: < 10 nM
26 | COc1ccc2c(c1)C1(CCOCC1)CN2c1ncc(C(=O)NC2(C(=O)O)CCCCC2)c(C(F)(F)F)n1 [Compound I-76] | 10 to 100 | – | –
27 | CC1CN(c2ncccn2)CCC1Oc1ccc2c(-c3ncc(C(=O)NC4(C(=O)O)C5CC6CC(C5)CC4C6)c(C(F)(F)F)n3)cn(C3CCC(F)(F)CC3)c2c1 (single isomer, unassigned) [Compound I-392] | – | – | EC50 [1, 5]: < 10 nM
28 | O=C(NC1(C(=O)O)C2CC3CC(C2)CC1C3)c1cnc(N2CC3(CCOCC3)c3cc(OC4CCN(c5ncccn5)CC4)cc(F)c32)nc1C(F)(F)F (stereo not shown) [Compound I-332] | – | – | EC50 [1, 5]: < 10 nM
29 | O=C(NC1(C(=O)O)C2CC3CC(C2)CC1C3)c1cnc(N2CC3(CCCCC3)c3cc(OC4CCN(c5ncc(F)cn5)CC4)ccc32)nc1C(F)(F)F (stereo not shown) [Compound I-383] | < 10 | – | –
30 | Cc1cnccc1-n1cc(-c2ccc(C(=O)NC3(C(=O)O)C4CC5CC(C4)CC3C5)c(C(F)(F)F)n2)c2ccc(OC3CCN(c4ncccn4)CC3)cc21 (stereo not shown) [Compound I-317] | – | – | EC50 [1, 5]: < 10 nM
31 | O=C(NC1(C(=O)O)CCCCC1)c1cnc(N2CCc3cc(O[C@@H]4CCN(c5ncccn5)C4)ccc32)nc1C(F)(F)F [Compound I-74] | < 10 | – | –
32 | O=C(NC1(C(=O)O)CCCCC1)c1cnc(N2CCc3cc(OC4CCN(c5nccs5)CC4)ccc32)nc1C(F)(F)F [Compound I-42] | < 10 | – | –
33 | COc1ccc2c(c1)C1(CCOCC1)CN2c1ccc(C(=O)NC2(C(=O)O)C3CC4CC(C3)CC2C4)c(C(F)(F)F)n1 (stereo not shown) [Compound I-121] | < 10 | – | –
34 | O=C(NC1(C(=O)O)C2CC3CC(C2)CC1C3)c1cnc(N2CCc3cc(OCCC4CCOCC4)ccc32)nc1C(F)(F)C(F)(F)F (stereo not shown) [Compound I-180] | < 10 | – | –
35 | COc1ccc2c(-c3ncc(C(=O)NC4(C(=O)O)C5CC6CC(C5)CC4C6)c(C(F)(F)F)n3)cn(C3CCC(F)(F)CC3)c2c1 (stereo not shown) [Compound I-455] | 10 to 100 | – | –
